Biological target: T1, human mAChR M4 (Homo sapiens, UniProt P08173)
T1 construct: expressed in transfected cells; host or cells: CHO-K1 (American Type Culture Collection), stably expressing hM4 and Gqi5
T1 sequence (P08173 1-479): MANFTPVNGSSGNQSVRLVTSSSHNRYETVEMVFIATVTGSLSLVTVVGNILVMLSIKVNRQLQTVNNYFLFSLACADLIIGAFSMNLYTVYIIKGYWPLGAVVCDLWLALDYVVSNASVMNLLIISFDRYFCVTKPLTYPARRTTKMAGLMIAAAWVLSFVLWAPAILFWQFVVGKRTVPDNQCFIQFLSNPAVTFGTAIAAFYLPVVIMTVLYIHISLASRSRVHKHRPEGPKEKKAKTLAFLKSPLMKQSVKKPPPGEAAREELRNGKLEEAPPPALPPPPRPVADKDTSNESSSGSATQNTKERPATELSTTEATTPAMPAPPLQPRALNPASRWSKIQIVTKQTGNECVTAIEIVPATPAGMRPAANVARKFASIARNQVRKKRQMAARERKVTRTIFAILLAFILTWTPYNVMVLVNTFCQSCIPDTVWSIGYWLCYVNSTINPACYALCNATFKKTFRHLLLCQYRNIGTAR
Test: mAChR M4 cell-based functional assay: calcium mobilization (Fluo-4, FDSS), potentiation of EC20 acetylcholine response in hM4-Gqi5 CHO-K1 cells
Conditions: human M4; for Emax at 30 µM: CHO-K1, % ACh maximum at 30 μM; for EC50: potentiation of EC20 acetylcholine response, calcium mobilization
Outline: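 CHO-K1 cells stably co-expressing human M4 and chimeric Gqi5, loaded with Fluo-4 AM (50 min, 37 °C). Compounds in 11-point 1:3 series added first; EC20 acetylcholine added at 144 s and again at 230 s. Calcium read on FDSS at 1 Hz; EC50 and Emax from four-parameter logistic fit of potentiated EC20 response.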

| Structure (SMILES) | Emax at 30 µM [%] | EC50 [nM] |
| --- | --- | --- |
| Cc1cc2nccc(=O)n2nc1N1CCc2ncc(N3CC(C)Oc4cc(F)ccc43)cc2C1 (stereo not drawn) [Compound 2-55, 7-(3-(7-fluoro-2-methyl-2,3-dihydro-4H-benzo[b][1,4]oxazin-4-yl)-7,8-dihydro-1,6-naphthyridin-6(5H)-yl)-8-methyl-4H-pyrimido[1,2-b]pyridazin-4-one] | 89 | 108 |
| Cc1cc2nccc(=O)n2nc1N1CCc2ncc(N3CCc4ncccc43)cc2C1 [Compound 2-58, 7-(3-(2,3-dihydro-1H-pyrrolo[3,2-b]pyridin-1-yl)-7,8-dihydro-1,6-naphthyridin-6(5H)-yl)-8-methyl-4H-pyrimido[1,2-b]pyridazin-4-one] | 86 | 188 |
| Cc1cc2nccc(=O)n2nc1N1CCc2ncc(N3CCOC(c4ccccc4F)C3)cc2C1 (stereo not drawn) [Compound 2-59, 7-(3-(2-(2-fluorophenyl)morpholino)-7,8-dihydro-1,6-naphthyridin-6(5H)-yl)-8-methyl-4H-pyrimido[1,2-b]pyridazin-4-one] | 74 | 268 |
| Cc1cc2nccc(=O)n2nc1N1CCc2ncc(N3CCOC(c4cccc(F)c4)C3)cc2C1 (stereo not drawn) [Compound 2-61, 7-(3-(2-(3-fluorophenyl)morpholino)-7,8-dihydro-1,6-naphthyridin-6(5H)-yl)-8-methyl-4H-pyrimido[1,2-b]pyridazin-4-one] | 84 | 518 |
| COc1ccccc1Nc1cnc2c(c1)CN(c1nn3c(=O)ccnc3cc1C)CC2 [Compound 2-62, 7-(3-((2-methoxyphenyl)amino)-7,8-dihydro-1,6-naphthyridin-6(5H)-yl)-8-methyl-4H-pyrimido[1,2-b]pyridazin-4-one] | 87 | 221 |
| Cc1cc2nccc(=O)n2nc1N1CCc2ncc(N3CCOC(c4ccc(F)cc4)C3)cc2C1 (stereo not drawn) [Compound 2-64, 7-(3-(2-(4-fluorophenyl)morpholino)-7,8-dihydro-1,6-naphthyridin-6(5H)-yl)-8-methyl-4H-pyrimido[1,2-b]pyridazin-4-one] | 84 | 398 |
| Cc1cc(F)ccc1Nc1cnc2c(c1)CN(c1nn3c(=O)ccnc3cc1C)CC2 [Compound 2-65, 7-(3-((4-fluoro-2-methylphenyl)amino)-7,8-dihydro-1,6-naphthyridin-6(5H)-yl)-8-methyl-4H-pyrimido[1,2-b]pyridazin-4-one] | 90 | 99 |

Now those with a lower EC50, led by results:

| Emax at 30 µM [%] | EC50 [nM] | Structure (SMILES) |
| --- | --- | --- |
| 96 | 64 | Cc1ccc2c(c1)N(c1cnc3c(c1)CN(c1nn4c(=O)ccnc4cc1C)CC3)C(C)CO2 (stereo not drawn) [Compound 2-54, 7-(3-(3,6-dimethyl-2,3-dihydro-4H-benzo[b][1,4]oxazin-4-yl)-7,8-dihydro-1,6-naphthyridin-6(5H)-yl)-8-methyl-4H-pyrimido[1,2-b]pyridazin-4-one] |
| 98 | 14 | Cc1cc2nccc(=O)n2nc1N1CCc2ncc(N3CCOc4cc(F)ccc43)cc2C1 [Compound 2-56, 7-(3-(7-fluoro-2,3-dihydro-4H-benzo[b][1,4]oxazin-4-yl)-7,8-dihydro-1,6-naphthyridin-6(5H)-yl)-8-methyl-4H-pyrimido[1,2-b]pyridazin-4-one] |
| 93 | 20 | Cc1cc2nccc(=O)n2nc1N1CCc2ncc(N3CC(C)Oc4ccccc43)cc2C1 (stereo not drawn) [Compound 2-57, 8-methyl-7-(3-(2-methyl-2,3-dihydro-4H-benzo[b][1,4]oxazin-4-yl)-7,8-dihydro-1,6-naphthyridin-6(5H)-yl)-4H-pyrimido[1,2-b]pyridazin-4-one] |
| 91 | 29 | Cc1cc2nccc(=O)n2nc1N1CCc2ncc(Nc3ccccc3)cc2C1 [Compound 2-60, 8-methyl-7-(3-(phenylamino)-7,8-dihydro-1,6-naphthyridin-6(5H)-yl)-4H-pyrimido[1,2-b]pyridazin-4-one] |
| 91 | 79 | Cc1cc2nccc(=O)n2nc1N1CCc2ncc(Nc3ccc(F)cc3)cc2C1 [Compound 2-63, 7-(3-((4-fluorophenyl)amino)-7,8-dihydro-1,6-naphthyridin-6(5H)-yl)-8-methyl-4H-pyrimido[1,2-b]pyridazin-4-one] |
